# What was measured:
# [1] = system: bovine brain capillary endothelial cell monolayers; assay: Competition of [125I]-p97 binding on bovine brain capillary endothelial cell monolayers; conditions: [125I]-p97 25 nM, 2 h at 4° C., competitor 7.5 micromolar (FIG. 3)
# Experimental: FIG. 3. Binding of p97 on bovine brain capillary endothelial cell monolayers. Binding p97 was performed with BBCECs that were pre-incubated 2 hrs in Ringer-Hepes to avoid any interference from the astrocytes. For the binding experiments, cells were incubated for 2 h at 4° C. in Ringer/Hepes in the presence of [^125I]-p97 (25 nM) and 7.5 micromolar concentrations of cold-p97, transferrin or lactoferrin, respectively. At the end of the incubation, the filters were gently washed at 4° C. three times with 4 ml of cold-PBS. Then the associated radioactivity of endothelial cells was determined by removing the membrane of the culture insert and counting it in a gamma counter.
# B. Binding studies of p97. Binding of p97 was performed with BBCECs and Rat Brain Endothelial Cells that were pre-incubated 2 hrs in Ringer/Hepes to avoid any interference from the astrocytes.
# For the binding experiments, cells were incubated for 2 h at 4° C. in Ringer/Hepes in the presence of [^125I]-p97 (25 nM) and increasing concentrations of cold-p97 or high (7.5 micromolar) concentrations of transferrin or lactoferrin. At the end of the incubation, the filters were gently washed at 4° C. three times with 4 ml of cold-PBS. Then the associated radioactivity of endothelial cells was determined by removing the membrane of the culture insert and counting it in a gamma counter.
# [2] = system: RBE4 cells; assay: Competition of [125I]-p97 binding on rat brain endothelial cells (RBE4); conditions: competitor 10 micromolar, 2 hrs at 4° C. (FIG. 4)
# Experimental: FIG. 4. Binding of p97 on rat brain endothelial cells. Binding p97 was performed with RBE4 that were pre-incubated 2 hrs in Ringer-Hepes. For the binding experiments, cells in 24-well microplates were incubated for 2 h at 4° C. in Ringer/Hepes in the presence of [^125I]-p97 (25 nM) and 10 micromolar concentrations of cold-p97, transferrin or lactoferin, respectively. At the end of the incubation, the cells were gently washed at 4° C. three times with 4 ml of cold-PBS. RBE4 cells were then lysed with Triton X-100 and the associated radioactivity of with cell lysates was determined.
# RBE4 cells were grown in monolayers in 24 wells plastic tissue culture flasks at 37° C. under 5% CO2 in minimum essential medium Alpha and Ham's F10 (1:1) supplemented with 10% heat inactivated fetal bovine serum. For p97 binding experiments, RBE4 cells were pre-incubated at 37° C. for 2 hrs in Ringer/Hepes. ^125I-p97 in 200 μl of Ringer/Hepes was added to RBE4 cells for 2 hrs at 4° C. in the presence or absence of high concentration of cold-p97, human holo-transferrin or human lactoferrin. After the incubation, the cells were washed 4 times with PBS and the ^125I-p97 associated with the cells was measured.
# [3] = target: BBCEC monolayers; conditions: +saponin, published value; cited from earlier work
# [4] = system: BBCEC monolayers; assay: Transcytosis across BBCEC monolayers (in vitro BBB model); format: cell-based, bovine
# From the text: FIG. 10 assesses the ability of several agents to interfere with p97 transyctosis. FIG. 10a, transcytosis of I125-P97 was compared in the presence of cold p97 (5 micromolar), Lf (5 micromolar), and Tf (5 micromolar). […] FIG. 10c, RAP, a known poly-peptide inhibitor of the LDL-Receptor family was applied to the cells (25 micrograms/ml).
# FIG. 11 examines the accumulation and transcytosis of p97. FIG. 11a, of [^125I]-p97, [^125I]-BSA and [^125I]-holo-transferrin one hour after i.v. injection. The radioactivity in brain was compared between the three compounds. (n=3); FIG. 11b, Accumulation of p97 and transferrin into the mouse brain parenchyma. In situ brain perfusion was performed with human [^125I]-p97 or [^125I]-holo-transferrin at a final concentration of 10 nM via a catheter inserted in the right common carotid artery. The volume of distribution (VD) of [^125I]-proteins were obtained in the whole brain homogenate (white bars), in brain capillaries (solid bars) and in brain parenchyma (hatched bars) after isolation of the right hemisphere and capillary depletion. Results were obtained for p97 (n=10) and for holo-transferrin (n=6); FIG. 11c, Transcytosis of p97 across BBCEC monolayers. Transcytosis experiments were performed 37° C. (open circles) and 4° C. (closed circles) with BBCEC monolayers. [^125I]-p97 (1 mg/ml) was added to the upper side of the cell-covered filter. One representative experiment is shown (n=4); FIG. 11d, Preferential transport of p97 across the BBCEC monolayers. Apical-to-basal and basal-to-apical transport of [^125I]-p97 (25 nM) was measured for 2 hrs at 37° C. At the end of the experiment, [^125I]-p97 was assessed in the lower or upper chambers of each well by TCA precipitation (n=4).
# FIG. 13 illustrates the transcytosis and accumulation of p97 and transferrin in BBCEC monolayers. FIG. 13a, Transcytosis experiments were performed at 37° C. (solid bars) or 4° C. (white bars). [^125I]-p97 or bovine [^125I]-holo-transferrin (1 mg/ml) was added to the upper side of the cell-covered filter. At the end of the experiment, radiolabelled proteins were measured in the lower chamber of each well by TCA precipitation (n=4). Controls were also performed at 37° C. with denatured [^125I]-p97 or bovine [^125I]-holo-transferrin boiled for 30 min (grey bars) (n=2); FIG. 13b, Biospecific interaction analysis was performed with native or boiled p97 for the indicated times. MAb L235 (5 μg) was immobilized on a sensor chip (SM5) using standard procedures incorporating NHS, EDC and ethanolamine. Native and boiled p97 (5 to 30 min) diluted at 1 mg/ml in Ringer/Hepes was cooled and injected into the BIAcore. The surface plasmon resonance response obtained for native p97 and boiled p97 was plotted (in relative units (RU)) as a function of time; FIG. 13c, The accumulation of both proteins into BBEC cells were also measured. Briefly, after incubation at 37° C. (solid bars) or 4° C. (white bars) with either [^125I]-protein, cells were washed four times with cold PBS. Accumulation of both denatured proteins (grey bars) was also measured at 37° C. Filters were then removed, and the radioactivity associated with the cells was quantified (n=3).
# FIG. 14 illustrates the stability of p97 and integrity of the BBCEC monolayers following p97 transcytosis. FIG. 14a, Transcytosis experiments were performed at 37° C. and 4° C. by adding p97 (1 mg/ml) to the upper compartment. At the end of the experiment, 50 μl from each lower chamber was used for SDS-polyacrylamide gel electrophoresis. After electrophoresis, the gels were stained with Coomassie Blue. A standard curve was also made with known amounts of recombinant p97 (0-2 μg); FIG. 14b. The gels were dried and scanned to quantify the amount of intact p97 that crossed the BBCEC monolayers at 37° C. and 4° C. (n=3); FIG. 14c, Effect of p97 on sucrose permeability of BBCE cell monolayers co-cultured with astrocytes. […]
substance,measurement,setting,value
"transferrin: transferrin (Tf), iron-binding serum protein used as comparator and competitor",Inhibition of [125I]-p97 binding to BBCECs,[1],did not block or reduce
same,Inhibition of [125I]-p97 binding to RBE4 cells,[2],does not
same,Kd,[3],11 nM
same,Effect of heat-denaturation on passage through BBCEC monolayers,"[4]; boiled 30 min, 37° C. (FIG. 13a)",reduced the passage
same,Effect on transcytosis of 125I-p97,"[4]; competitor 5 micromolar (FIG. 10a, 10b)",only the cold p97 successfully reduced
